Assays:
Homo sapiens = species on record: Homo sapiens; assay: Metabolism (NADH oxidation) by recombinant human NAD(P)H: quinone oxidoreductase (NQO1) is evaluated.; type: ADME
[1] = Selectivity ratio against NSCLC H460 and NSCLC H596 was evaluated; type: functional; parameters: reference not given here
NCI-H596 = assay: Cytotoxic activity against non-small cell lung cancer cell line (NSCLC) H596 was determined by using MTT colorimetric assay.; type: functional, cell-based; conditions: Homo sapiens
NCI-H460 = assay: Cytotoxic activity against non-small cell lung cancer cell line (NSCLC) H460 was determined by using MTT colorimetric assay.; type: functional, cell-based; conditions: Homo sapiens

## Cc1c(CO)c2c(n1C)C(=O)C=C(N(C)C)C2=O
Homo sapiens
  Metabolism: 0.46 µM/min/mg

## COC1=CC(=O)c2c(c(COC(N)=O)c(C)n2C)C1=O
[1]
  Selectivity ratio: 0.3

## Cc1c(CO)c2c(n1C)C(=O)C=C(N1CCC1)C2=O
Homo sapiens
  Metabolism: 0.22 µM/min/mg

## Cc1cc2c(n1C)C(=O)C=C(N1CC1)C2=O
[1]
  Selectivity ratio: > 26
Homo sapiens
  Metabolism: 11.6 µM/min/mg

## Cc1c(CO)c2c(n1C)C(=O)C=C(N1CCOCC1)C2=O
Homo sapiens
  Metabolism: 0.69 µM/min/mg

## COC1=CC(=O)c2c(c(C=O)c(C)n2C)C1=O
Homo sapiens
  Metabolism: 8.78 µM/min/mg

## CCOC(=O)c1c2c(n(C)c1C)C(=O)C=C(OC)C2=O
Homo sapiens
  Metabolism: 14.3 µM/min/mg

## C/N=C1\C=C(O)c2c(c(CO)c(C)n2C)C1=O
Homo sapiens
  Metabolism: 0.49 µM/min/mg

## COC1=CC(=O)c2c(cc(C)n2C)C1=O
[1]
  Selectivity ratio: 1
Homo sapiens
  Metabolism: 5.31 µM/min/mg

## COC1=CC(=O)c2c(c(CO)c(C)n2C)C1=O
[1]
  Selectivity ratio: 1
Homo sapiens
  Metabolism: 1.25 µM/min/mg

## Cc1c(CO)c2c(n1C)C(=O)C=C(CN1CC1)C2=O
NCI-H596
  IC50: > 25000 nM
[1]
  Selectivity ratio: > 220
NCI-H460
  IC50: 110 nM
Homo sapiens
  Metabolism: 2.01 µM/min/mg

## COCC/N=C1\C=C(O)c2c(c(CO)c(C)n2C)C1=O
Homo sapiens
  Metabolism: 0.1 µM/min/mg

## Cc1c(COC(N)=O)c2c(n1C)C(=O)C=C(N1CC1)C2=O
[1]
  Selectivity ratio: 1.6

## Cc1c(CO)c2c(n1C)C(=O)C=C(N1CC1)C2=O
[1]
  Selectivity ratio: 510
Homo sapiens
  Metabolism: 3.35 µM/min/mg
